Source: the supplement of paper PMC10307832

Key:
Experiment in all cases: relative viability (nuclei count vs DMSO), 5 days (fraction); higher = more cells survive
NCI-H2126 = system: NCI-H2126
Outline: (§1)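 Nuclei were stained with Hoechst during a one-step fixation (final 0.05% Triton X-100, 1% formaldehyde, 1 ug/ml Hoechst) carried out 5 days after dosing, then counted on 4× images. The cells, lung cancer lines in 1536-well plates, had been dosed by pin tool the day after seeding with one drug alone or a fixed anchor-drug dose plus five library-drug doses (not always all listed) in √10 steps. Relative viability is the nuclei count in treated wells divided by that in vehicle wells, and each value is the median of duplicate plates.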

CAL-12T = system: CAL-12T
Outline: as §1

EPLC-272H = system: EPLC-272H
Outline: as §1

LXF-289 = system: LXF-289
Outline: as §1

NCI-H1915 = system: NCI-H1915
Outline: as §1

NCI-H3122 = system: NCI-H3122
Outline: as §1

HOP-62 = system: HOP-62
Outline: as §1

NCI-H1975 = system: NCI-H1975
Outline: as §1

NCI-H1666 = system: NCI-H1666
Outline: as §1

UMC-11 = system: UMC-11
Outline: as §1

NCI-H2023 = system: NCI-H2023
Outline: as §1

NCI-H441 = system: NCI-H441
Outline: as §1

EMC-BAC-2 = system: EMC-BAC-2
Outline: as §1

NCI-H358 = system: NCI-H358
Outline: as §1

HCC-15 = system: HCC-15
Outline: as §1

NCI-H2085 = system: NCI-H2085
Outline: as §1

NCI-H1755 = system: NCI-H1755
Outline: as §1

COR-L 105 = system: COR-L 105
Outline: as §1

ABC-1 = system: ABC-1
Outline: as §1

HCC-78 = system: HCC-78
Outline: as §1

NCI-H322M = system: NCI-H322M
Outline: as §1

Compound `O=c1cc(-c2cccc3c2Sc2ccccc2S3)oc(N2CCOCC2)c1` + C[C@]1(O)C[C@@H](c2nc(-c3ccc4ccc(-c5ccccc5)nc4c3)c3c(N)nccn32)C1 [Linsitinib] (partner 1 µM) has a relative viability (NCI-H2126; first compound 0.08 µM) of 0.707, a relative viability (NCI-H2126; first compound 0.253 µM) of 0.809 and a relative viability (NCI-H2126; first compound 0.8 µM) of 0.708. For the same compound, the relative viability (NCI-H2126; first compound 2.53 µM) was 0.667, the relative viability (NCI-H2126; first compound 8 µM) was 0.592 and the relative viability (CAL-12T; first compound 0.08 µM) was 0.73. It also gave a relative viability (CAL-12T; first compound 0.253 µM) of 0.861, a relative viability (CAL-12T; first compound 0.8 µM) of 0.899 and a relative viability (CAL-12T; first compound 2.53 µM) of 0.77. For the same compound, the relative viability (CAL-12T; first compound 8 µM) was 0.503, the relative viability (EPLC-272H; first compound 0.08 µM) was 1.12 and the relative viability (EPLC-272H; first compound 0.253 µM) was 1.31. It also gave a relative viability (EPLC-272H; first compound 0.8 µM) of 1.3, a relative viability (EPLC-272H; first compound 2.53 µM) of 1.19 and a relative viability (EPLC-272H; first compound 8 µM) of 1.13. For the same compound, the relative viability (LXF-289; first compound 0.08 µM) was 0.993, the relative viability (LXF-289; first compound 0.253 µM) was 0.976 and the relative viability (LXF-289; first compound 0.8 µM) was 0.99. It also gave a relative viability (LXF-289; first compound 2.53 µM) of 0.96, a relative viability (LXF-289; first compound 8 µM) of 1.07 and a relative viability (NCI-H1915; first compound 0.08 µM) of 1.06. For the same compound, the relative viability (NCI-H1915; first compound 0.253 µM) was 1.1, the relative viability (NCI-H1915; first compound 0.8 µM) was 1.07 and the relative viability (NCI-H1915; first compound 2.53 µM) was 1.05. The relative viability (NCI-H1915; first compound 8 µM) was 1.12, the relative viability (NCI-H3122; first compound 0.08 µM) was 1.07 and the relative viability (NCI-H3122; first compound 0.253 µM) was 1.16. The relative viability (NCI-H3122; first compound 0.8 µM) was 1.06, the relative viability (NCI-H3122; first compound 2.53 µM) was 0.99 and the relative viability (NCI-H3122; first compound 8 µM) was 1.07. For the same compound, the relative viability (HOP-62; first compound 0.08 µM) was 1.04, the relative viability (HOP-62; first compound 0.253 µM) was 1.01 and the relative viability (HOP-62; first compound 0.8 µM) was 1.01. It also gave a relative viability (HOP-62; first compound 2.53 µM) of 0.789, a relative viability (HOP-62; first compound 8 µM) of 0.917 and a relative viability (NCI-H1975; first compound 0.08 µM) of 1.07. The relative viability (NCI-H1975; first compound 0.253 µM) was 1.2, the relative viability (NCI-H1975; first compound 0.8 µM) was 0.807 and the relative viability (NCI-H1975; first compound 2.53 µM) was 0.863. For the same compound, the relative viability (NCI-H1975; first compound 8 µM) was 0.881, the relative viability (NCI-H1666; first compound 0.08 µM) was 0.827 and the relative viability (NCI-H1666; first compound 0.253 µM) was 0.946. It also gave a relative viability (NCI-H1666; first compound 0.8 µM) of 0.545, a relative viability (NCI-H1666; first compound 2.53 µM) of 0.738 and a relative viability (NCI-H1666; first compound 8 µM) of 0.805. It also gave a relative viability (UMC-11; first compound 0.08 µM) of 1.16, a relative viability (UMC-11; first compound 0.253 µM) of 1.17 and a relative viability (UMC-11; first compound 0.8 µM) of 1.18. For the same compound, the relative viability (UMC-11; first compound 2.53 µM) was 1.06, the relative viability (UMC-11; first compound 8 µM) was 1.23 and the relative viability (NCI-H2023; first compound 0.08 µM) was 0.611. For the same compound, the relative viability (NCI-H2023; first compound 0.253 µM) was 0.747, the relative viability (NCI-H2023; first compound 0.8 µM) was 0.723 and the relative viability (NCI-H2023; first compound 2.53 µM) was 0.458. The relative viability (NCI-H2023; first compound 8 µM) was 0.416, the relative viability (NCI-H441; first compound 0.08 µM) was 0.549 and the relative viability (NCI-H441; first compound 0.253 µM) was 0.619. For the same compound, the relative viability (NCI-H441; first compound 0.8 µM) was 0.759, the relative viability (NCI-H441; first compound 2.53 µM) was 0.584 and the relative viability (NCI-H441; first compound 8 µM) was 0.632. For the same compound, the relative viability (EMC-BAC-2; first compound 0.08 µM) was 0.828, the relative viability (EMC-BAC-2; first compound 0.253 µM) was 0.9 and the relative viability (EMC-BAC-2; first compound 0.8 µM) was 0.842. For the same compound, the relative viability (EMC-BAC-2; first compound 2.53 µM) was 0.817, the relative viability (EMC-BAC-2; first compound 8 µM) was 0.878 and the relative viability (NCI-H358; first compound 0.08 µM) was 0.618. It also gave a relative viability (NCI-H358; first compound 0.253 µM) of 0.665, a relative viability (NCI-H358; first compound 0.8 µM) of 0.79 and a relative viability (NCI-H358; first compound 2.53 µM) of 0.707. The relative viability (NCI-H358; first compound 8 µM) was 0.784, the relative viability (HCC-15; first compound 0.08 µM) was 0.958 and the relative viability (HCC-15; first compound 0.253 µM) was 0.93. It also gave a relative viability (HCC-15; first compound 0.8 µM) of 0.904, a relative viability (HCC-15; first compound 2.53 µM) of 0.844 and a relative viability (HCC-15; first compound 8 µM) of 0.88. For the same compound, the relative viability (NCI-H2085; first compound 0.08 µM) was 0.812, the relative viability (NCI-H2085; first compound 0.253 µM) was 0.911 and the relative viability (NCI-H2085; first compound 0.8 µM) was 0.925. For the same compound, the relative viability (NCI-H2085; first compound 2.53 µM) was 0.846, the relative viability (NCI-H2085; first compound 8 µM) was 0.595 and the relative viability (NCI-H1755; first compound 0.08 µM) was 1.03. The relative viability (NCI-H1755; first compound 0.253 µM) was 1.1, the relative viability (NCI-H1755; first compound 0.8 µM) was 0.978 and the relative viability (NCI-H1755; first compound 2.53 µM) was 1.02. For the same compound, the relative viability (NCI-H1755; first compound 8 µM) was 0.936, the relative viability (COR-L 105; first compound 0.08 µM) was 0.771 and the relative viability (COR-L 105; first compound 0.253 µM) was 1.11. For the same compound, the relative viability (COR-L 105; first compound 0.8 µM) was 0.823, the relative viability (COR-L 105; first compound 2.53 µM) was 0.958 and the relative viability (COR-L 105; first compound 8 µM) was 1.07. The relative viability (ABC-1; first compound 0.08 µM) was 0.627, the relative viability (ABC-1; first compound 0.253 µM) was 1.02 and the relative viability (ABC-1; first compound 0.8 µM) was 0.717. It also gave a relative viability (ABC-1; first compound 2.53 µM) of 0.711, a relative viability (ABC-1; first compound 8 µM) of 0.954 and a relative viability (HCC-78; first compound 0.08 µM) of 0.561. The relative viability (HCC-78; first compound 0.253 µM) was 0.746, the relative viability (HCC-78; first compound 0.8 µM) was 0.41 and the relative viability (HCC-78; first compound 2.53 µM) was 0.457. It also gave a relative viability (HCC-78; first compound 8 µM) of 0.575, a relative viability (NCI-H322M; first compound 0.08 µM) of 0.868 and a relative viability (NCI-H322M; first compound 0.253 µM) of 1.04. The relative viability (NCI-H322M; first compound 0.8 µM) was 0.866, the relative viability (NCI-H322M; first compound 2.53 µM) was 0.928 and the relative viability (NCI-H322M; first compound 8 µM) was 0.839.
